# Laboratory results as given in patent US20140329868A1, “METHODS FOR TREATING HYPERTENSION” (TAKEDA PHARMACEUTICALS U.S.A., INC., priority 2005, published 2014).
# Legend:
# [1] = tested on: subjects having a systolic BP≧160 mmHg or diastolic BP≧95 mmHg (elevated blood pressure); test: Example 2: blood pressure change in subjects with elevated blood pressure, none taking angiotensin-converting enzyme inhibitors (two double-blind studies); format: in vivo, human; details: 300/100 mg QD
# Experimental: None of these subjects were taking any angiotensin-coverting enzyme inhibitors, but might have been taking some other type of antihypertensive drug at the baseline (start) of the study. These 158 subjects were part of two (2) DB studies. One study was of 28 weeks in duration during which subjects received 80 mg, 120 mg or 240 mg QD of febuxostat or placebo or allopurinol 300 or 100 mg QD, depending on the subject's renal function. The second study was 52 weeks in duration during which subjects received 80 mg or 120 mg QD of febuxostat or allopurinol 300 mg QD. […] A total of 52 weeks of treatment was completed by 15 subjects in the febuxostat 80 mg QD group, 9 in the febuxostat 120 mg QD group and 17 in the allopurinol 300/100 mg QD group. Because of the shorter duration of one of the two DB studies, no subject in the placebo and febuxostat 240 mg QD groups was treated for 52 weeks.
# [2] = tested on: subjects having a systolic BP≧160 mmHg or diastolic BP≧95 mmHg (elevated blood pressure); test: Example 3: blood pressure change in subjects with elevated blood pressure, none taking angiotensin antagonists (two double-blind studies); format: in vivo, human; details: 300/100 mg QD
# Experimental: None of these subjects were taking any angiotensin antagonists, but might have been taking some other type of antihypertensive drug at the baseline (start) of the study. These 187 subjects were part of two (2) DB studies. One study was of 28 weeks in duration during which subjects received 80 mg, 120 mg or 240 mg QD of febuxostat or placebo or allopurinol 300 or 100 mg QD, depending on the subject's renal function. The second study was of 52 weeks in duration during which subjects received 80 mg or 120 mg QD of febuxostat or allopurinol 300 mg QD. Of these 187 subjects, all completed 4 weeks of treatment and 132 completed 28 weeks of treatment. A total of 52 weeks of treatment was completed by 15 subjects in the febuxostat 80 mg QD group, 11 in the febuxostat 120 mg QD group and 22 in the allopurinol 300/100 mg QD group. Because of the shorter duration of one of the 2 DB studies, no subject in the placebo and febuxostat 240 mg QD groups were treated for 52 weeks.
# [3] = target: T1, purine nucleotide phosphorylase (Homo sapiens, UniProt P00491); details: at a therapeutically effective amount in a subject; stated as known; cited from earlier work
# T1 sequence (P00491 1-289): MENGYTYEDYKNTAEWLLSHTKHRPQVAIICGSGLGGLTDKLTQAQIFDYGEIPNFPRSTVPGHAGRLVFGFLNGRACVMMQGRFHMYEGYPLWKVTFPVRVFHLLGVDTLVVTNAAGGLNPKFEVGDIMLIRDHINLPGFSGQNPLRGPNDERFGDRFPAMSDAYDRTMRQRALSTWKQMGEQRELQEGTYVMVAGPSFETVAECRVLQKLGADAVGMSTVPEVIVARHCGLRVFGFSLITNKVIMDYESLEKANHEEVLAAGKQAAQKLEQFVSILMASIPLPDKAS
# [4] = tested on: subjects having a systolic BP≧160 mmHg or diastolic BP≧95 mmHg (elevated blood pressure); test: Example 1: blood pressure change in subjects with elevated blood pressure, none taking antihypertensive agents at baseline (two double-blind studies); format: in vivo, human; details: 300/100 mg QD
# Experimental: A total of 103 subjects (9 in the placebo group, 26 in each the 2-[3-cyano-4-(2-methylpropoxy)phenyl]-4-methylthiazole-5-carboxylic acid (hereinafter referred to as “febuxostat”) 80 mg and 120 mg once daily (hereinafter referred to as “QD”) groups, 10 in the febuxostat 240 mg QD group and 32 in the 4-hydroxy-3,4-pyrazolopyrimidine (hereinafter referred to as “allopurinol”) 300/100 mg QD group), having a systolic BP≧160 mmHg or diastolic BP≧95 mmHg, and thus considered to have “elevated blood pressure”, were examined. Allopurinol […] xanthine oxidoreductase inhibitor.
# None of the above subjects were taking any antihypertensive agents at the baseline (start) of the study. These […] subjects were part of two (2) double-blind (hereinafter referred to as “DB”) studies. One study was of 28 weeks in duration. During this time, the subjects received 80 mg, 120 mg or 240 mg QD of febuxostat, placebo or allopurinol 300 or 100 mg QD, depending on the subject's renal function. The second study was 52 weeks in duration. During this time, the subjects received 80 mg or 120 mg QD of febuxostat or allopurinol 300 mg QD.
# [5] = target: orotidine-5-monophosphate decarboxylase (Homo sapiens, UniProt P11172); details: at a therapeutically effective amount in a subject; stated as known; cited from earlier work
# Chain of orotidine-5-monophosphate decarboxylase (P11172 whole entry): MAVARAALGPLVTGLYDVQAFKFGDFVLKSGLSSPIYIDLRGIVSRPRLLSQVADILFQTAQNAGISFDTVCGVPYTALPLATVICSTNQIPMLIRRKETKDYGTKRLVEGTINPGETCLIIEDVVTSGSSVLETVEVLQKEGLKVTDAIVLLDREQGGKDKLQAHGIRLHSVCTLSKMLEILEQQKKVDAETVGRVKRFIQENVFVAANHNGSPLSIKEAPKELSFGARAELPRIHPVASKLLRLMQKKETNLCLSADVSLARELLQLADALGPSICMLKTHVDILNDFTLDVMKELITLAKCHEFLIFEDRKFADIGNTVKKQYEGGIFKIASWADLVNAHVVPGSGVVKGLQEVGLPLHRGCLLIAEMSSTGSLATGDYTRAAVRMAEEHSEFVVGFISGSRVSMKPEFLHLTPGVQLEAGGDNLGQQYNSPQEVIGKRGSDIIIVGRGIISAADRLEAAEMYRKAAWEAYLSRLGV
smiles,measurement,setting,value
"Oc1ncnc2[nH]ncc12 [allopurinol, 4-hydroxy-3,4-pyrazolopyrimidine]",mean change from baseline for diastolic BP,[1]; after 4 weeks of treatment,−6.7 mmHg
same,mean change from baseline for mean arterial BP,[1]; after 4 weeks of treatment,−6.7 mmHg
same,mean change from baseline for systolic BP,[1]; after 4 weeks of treatment,−6.6 mmHg
same,mean change from baseline for diastolic BP,[1]; after 28 weeks of treatment,−10.1 mmHg
same,mean change from baseline for mean arterial BP,[1]; after 28 weeks of treatment,−9.8 mmHg
same,mean change from baseline for systolic BP,[1]; after 28 weeks of treatment,−9.1 mmHg
same,mean change from baseline for diastolic BP,[1]; after 52 weeks of treatment,−11.4 mmHg
same,mean change from baseline for mean arterial BP,[1]; after 52 weeks of treatment,−10.8 mmHg
same,mean change from baseline for systolic BP,[1]; after 52 weeks of treatment,−9.5 mmHg
same,mean change from baseline for diastolic BP,[2]; after 4 weeks of treatment,−5.7 mmHg
same,mean change from baseline for mean arterial BP,[2]; after 4 weeks of treatment,−6.1 mmHg
same,mean change from baseline for systolic BP,[2]; after 4 weeks of treatment,−7.0 mmHg
same,mean change from baseline for diastolic BP,[2]; after 28 weeks of treatment,−8.7 mmHg
same,mean change from baseline for mean arterial BP,[2]; after 28 weeks of treatment,−8.8 mmHg
same,mean change from baseline for systolic BP,[2]; after 28 weeks of treatment,−9.0 mmHg
same,mean change from baseline for diastolic BP,[2]; after 52 weeks of treatment,−11.6 mmHg
same,mean change from baseline for mean arterial BP,[2]; after 52 weeks of treatment,−11.1 mmHg
same,mean change from baseline for systolic BP,[2]; after 52 weeks of treatment,−10.0 mmHg
same,effect on the activity of purine nucleotide phosphorylase,[3],has an effect
same,mean change from baseline for diastolic BP,[4]; after 4 weeks of treatment,−6.3 mmHg
same,mean change from baseline for mean arterial BP,[4]; after 4 weeks of treatment,−6.8 mmHg
same,mean change from baseline for systolic BP,[4]; after 4 weeks of treatment,−7.7 mmHg
same,mean change from baseline for diastolic BP,[4]; after 28 weeks of treatment,−8.2 mmHg
same,mean change from baseline for mean arterial BP,[4]; after 28 weeks of treatment,−7.8 mmHg
same,mean change from baseline for systolic BP,[4]; after 28 weeks of treatment,−7.0 mmHg
same,mean change from baseline for diastolic BP,[4]; after 52 weeks of treatment,−10.9 mmHg
same,mean change from baseline for mean arterial BP,[4]; after 52 weeks of treatment,−10.4 mmHg
same,mean change from baseline for systolic BP,[4]; after 52 weeks of treatment,−9.4 mmHg
same,effect on the activity of orotidine-5-monophosphate decarboxylase,[5],has an effect
